The source of these data is the PolyMetriX glass transition set.

Regarding `*/C(=C(/*)c1cccc([Si](C)(C)C)c1)c1ccccc1` (repeat unit), the glass transition temperature was 200.00 °C.

`*/C=C(\C#N)C(=O)OCCCCCCOC(=O)/C(C#N)=C/c1ccc2c(c1)c1cc(*)ccc1n2CCCCCCCCCCCn1c2ccccc2c2ccccc21` (repeat unit): the glass transition temperature turned out to be 63.00 °C.

`*/C=C/c1cc(OCCCCCCC)c(/C=C/c2ccc(*)cc2)cc1OCCCCCCC` (repeat unit) had a glass transition temperature of 46.00 °C.

`*/C=C/c1cc(OCCCCCCCC)c(/C=C/c2ccc(*)c3nsnc23)cc1OCCCCCCCC` (repeat unit) came in with a glass transition temperature of 153.00 °C.

`*/C=C/c1cc(OCCCCCCCCC)c(/C=C/c2ccc(*)cc2)cc1OCCCCCCCCC` (repeat unit) returned a glass transition temperature of 44.00 °C.

The compound `*/C=C/c1cc(OCCCCCCCCCCCC)c(/C=C/c2ccc(*)cc2)cc1OCCCCCCCCCCCC` (repeat unit) had a glass transition temperature of 38.00 °C.

The compound `*/C=C/c1ccc(/C=C/c2ccc3c(c2)Sc2cc(*)ccc2N3c2ccc(OCCCCCCCCCCCC)cc2)s1` (repeat unit) gave a glass transition temperature of 155.00 °C.

For `*=Cc1cc(OCCCCCCCC)c(/C=N/c2ccc(N=*)cc2)cc1OCCCCCCCC` (repeat unit), the glass transition temperature was 32.70 °C.

In turn, `*CC(=O)C(*)c1ccccc1` (repeat unit) came in with a glass transition temperature of 110.00 °C.

The compound `*CC(=O)O*` (repeat unit) yielded a glass transition temperature of 45.00 °C.

As to `*CC(C)(C)C1C(=O)N(C(C)C)C(=O)C1*` (repeat unit), the glass transition temperature is 145.00 °C.

`*CC(C)(C)C1C(=O)N(C)C(=O)C1*` (repeat unit) registered a glass transition temperature of 156.50 °C.

`*CC(C)(C)C1C(=O)N(c2c(CC)cccc2CC)C(=O)C1*` (repeat unit): the glass transition temperature was 210.00 °C.

Turning to `*CC(C)C(*)(C)C` (repeat unit), the glass transition temperature is 37.00 °C.

Compound `*CC(C)CC(*)(C)C(=O)OC` (repeat unit) gave a glass transition temperature of 16.00 °C.

Turning to `*CC(CBr)O*` (repeat unit), the glass transition temperature is -14.00 °C.

Compound `*CC(CC(*)(C#N)C#N)c1ccc(F)cc1` (repeat unit) had a glass transition temperature of 180.00 °C.

`*CC(CC(*)(C#N)C#N)c1ccc(OC(C)=O)cc1` (repeat unit) gave a glass transition temperature of 180.00 °C.

`*CC(CCCC)O*` (repeat unit) displayed a glass transition temperature of -69.00 °C.

Compound `*CC(COC(=O)CCCCCN1C(=O)C2C3C=CC(C3)C2C1=O)O*` (repeat unit) came in with a glass transition temperature of 1.00 °C.

Take `*CC(COC(=O)c1ccc(N2C(=O)C3C4C=CC(C4)C3C2=O)cc1)O*` (repeat unit): the glass transition temperature is 62.50 °C.

`*CC(COC(C)(C)C)O*` (repeat unit) gave a glass transition temperature of -24.00 °C.

In turn, `*CC(COc1ccc(-c2ccc(OC)cc2)cc1)O*` (repeat unit) registered a glass transition temperature of 111.00 °C.

Compound `*CC(COc1ccccc1)O*` (repeat unit) yielded a glass transition temperature of 42.00 °C.

Compound `*CC(CS(=O)(=O)CCCC)O*` (repeat unit) displayed a glass transition temperature of 37.00 °C.

`*CC(CSC(C)C)O*` (repeat unit): the glass transition temperature was -44.00 °C.

On to `*CC(CSC)O*` (repeat unit), for which the glass transition temperature was -37.00 °C.

`*CC(CSCC)O*` (repeat unit) yielded a glass transition temperature of -57.00 °C.

As to `*CC(CSCCC)O*` (repeat unit), the glass transition temperature is -61.00 °C.

In turn, `*CC(C[Si](*)(C)C)c1ccccc1` (repeat unit) displayed a glass transition temperature of -5.00 °C.

For the compound `*CC(Cc1ccc(-c2ccccc2)cc1)C[Si](*)(C)C` (repeat unit), the glass transition temperature is 28.00 °C.

`*CC(F)(F)C1(F)CC(CC(O)(C(F)(F)F)C(F)(F)F)CC1*` (repeat unit) showed a glass transition temperature of 98.00 °C.

Turning to `*CC(O)CCCCC(O)CN(*)c1ccc(N(C)C)cc1` (repeat unit), the glass transition temperature was 72.00 °C.

Turning to `*CC(O)CN(*)c1cc(C)c(/N=N/c2ccc(C#N)cc2)c(C)c1` (repeat unit), the glass transition temperature is 150.00 °C.

For the compound `*CC(O)CN(*)c1cc(C)c(/N=N/c2ccc(Cl)cc2)c(C)c1` (repeat unit), the glass transition temperature came out at 150.00 °C.

In the case of `*CC(O)CN(*)c1cc(C)c(/N=N/c2ccc([N+](=O)[O-])cc2)c(C)c1` (repeat unit), the glass transition temperature is 152.00 °C.

As for `*CC(O)CN(*)c1ccc(/N=N/c2ccc(C(=O)O)cc2)cc1` (repeat unit), the glass transition temperature was found to be 99.00 °C.

`*CCCC(O)CN(CCCC)c1ccc(C#Cc2ccc(S(*)(=O)=O)cc2)cc1` (repeat unit): the glass transition temperature was found to be 48.00 °C.

On to `*CCCCCCCCCCN/C(C)=N/*` (repeat unit), for which the glass transition temperature turned out to be 80.00 °C.

`*CCCCCCCCNC(=O)CC(=O)N*` (repeat unit) came in with a glass transition temperature of 55.00 °C.

With `*CCCCCCCCn1c2ccccc2c2cc(/C=C(\C#N)C(=O)OCCCCCCOC(=O)/C(C#N)=C/c3ccc4c(c3)c3ccccc3n4*)ccc21` (repeat unit), the glass transition temperature came to 96.70 °C.

With `*CCCCCCCn1c2ccccc2c2cc(/C=C(\C#N)C(=O)OCCCCCCOC(=O)/C(C#N)=C/c3ccc4c(c3)c3ccccc3n4*)ccc21` (repeat unit), the glass transition temperature came to 107.80 °C.

In turn, `*CCCCCCNC(=O)CC(C)(C)c1ccc(C(C)(C)CC(=O)N*)cc1` (repeat unit) showed a glass transition temperature of 91.00 °C.

`*CCCCCCNC(=O)CC(C)c1ccc(C(C)CC(=O)N*)cc1` (repeat unit) yielded a glass transition temperature of 88.00 °C.

The compound `*CCCCCCOC(=O)CC(=O)OCCCCCCOc1ccc(-n2on2-c2ccc(O*)cc2)cc1` (repeat unit) returned a glass transition temperature of 16.00 °C.

Consider `*CCCCCCOc1c(OC)cc(/C=C/c2ccc(/C=C/c3cc(OC)c(O*)c(OC)c3)cc2)cc1OC` (repeat unit), for which the glass transition temperature turned out to be 90.00 °C.

`*CCCCCCn1c2ccccc2c2cc(/C=C(\C#N)C(=O)OCCCCCCOC(=O)/C(C#N)=C/c3ccc4c(c3)c3ccccc3n4*)ccc21` (repeat unit) showed a glass transition temperature of 117.70 °C.

`*CCCCCOc1ccc(/C=C/C(=O)OCCN(CCOC(=O)/C=C/c2ccc(O*)cc2)c2ccc(/N=N/c3ccc([N+](=O)[O-])cc3)cc2)cc1` (repeat unit): the glass transition temperature came to 92.00 °C.

As for `*CCCCOCC(O)CN(CC(O)CO*)c1ccc(N(C)C)cc1` (repeat unit), the glass transition temperature stood at 31.00 °C.

In the case of `*CCCS(=O)(=O)c1ccc(/N=N/c2ccc(N(CCCC)CC(=O)O*)cc2)cc1` (repeat unit), the glass transition temperature was 92.40 °C.

Regarding `*NC(C)CC(*)=O` (repeat unit), the glass transition temperature was 125.00 °C.

The compound `*Nc1ccc(-c2ccc(NC(=O)Cc3cc(CC(*)=O)c(C)cc3C)cc2)cc1` (repeat unit) gave a glass transition temperature of 230.00 °C.

For `*Nc1cccc(NC(=O)Cc2cc(CC(*)=O)c(C)cc2C)c1` (repeat unit), the glass transition temperature came to 222.00 °C.

`*OC(C)CC(*)=O` (repeat unit) had a glass transition temperature of 3.40 °C.

In the case of `*OC(CCCCC)CC(*)=O` (repeat unit), the glass transition temperature is -33.00 °C.

As to `*OC(CCCCCC)CC(*)=O` (repeat unit), the glass transition temperature was -47.00 °C.

`*OC(CCCCCCC=C)CC(*)=O` (repeat unit) showed a glass transition temperature of -50.00 °C.

`*Oc1ccc(/C=C/c2cc(OCCCCCCCC)c(/C=C/c3ccc(Oc4cc5c6c(ccc7c8c(*)cc9c%10c(ccc(c4c67)c%108)C(=O)N(CCCCCCCC)C9=O)C(=O)N(CCCCCCCC)C5=O)cc3)cc2OCCCCCCCC)cc1` (repeat unit): the glass transition temperature came to 103.00 °C.

`*Oc1ccc(C2(c3ccc(Oc4ccc(/C=C/C(=O)c5ccc(*)cc5)cc4)cc3)c3ccccc3-c3ccccc32)cc1` (repeat unit) yielded a glass transition temperature of 195.00 °C.

`*Oc1ccc(NC(=O)/C=C/c2ccc(/C=C/C(=O)Nc3ccc(*)cc3)cc2)cc1` (repeat unit): the glass transition temperature is 205.00 °C.

`*Oc1ccc(S(=O)(=O)c2ccc(Oc3ccc(/C=C4\CCC/C(=C\c5ccc(*)cc5)C4=O)cc3)cc2)cc1` (repeat unit) came in with a glass transition temperature of 190.00 °C.

Compound `*Oc1ccc(S(=O)(=O)c2ccc(Oc3ccc(C4(c5ccc(Oc6ccc(S(=O)(=O)c7ccc(Oc8ccc(/C=C9\CCC/C(=C\c%10ccc(*)cc%10)C9=O)cc8)cc7)cc6)cc5)CCCCC4)cc3)cc2)cc1` (repeat unit) registered a glass transition temperature of 190.00 °C.

The compound `*Oc1ccc(S(=O)(=O)c2ccc(Oc3ccc(C4(c5ccc(Oc6ccc(S(=O)(=O)c7ccc(Oc8ccc(/C=C9\CCCC/C(=C\c%10ccc(*)cc%10)C9=O)cc8)cc7)cc6)cc5)CCCCCC4)cc3)cc2)cc1` (repeat unit) registered a glass transition temperature of 196.00 °C.

On to `*SCC(=O)N/N=C/c1ccc(OCCCCCCCCCCOc2ccc(/C=N/NC(=O)CSc3nnc(*)s3)cc2OC)c(OC)c1` (repeat unit), for which the glass transition temperature was 156.00 °C.

For `*c1ccc(/C=C/c2cc(OCCCCCCCC)c(/C=C/c3ccc(N(*)c4ccccc4)cc3)cc2OCCCCCCCC)cc1` (repeat unit), the glass transition temperature came out at 74.00 °C.

The compound `*c1ccc(C(=O)OCCCCCCCCCCOc2ccc(/C=C/C(=O)/C=C/c3ccc(OCCCCCCCCCCOC(=O)c4ccc(-c5nnc(*)o5)cc4)cc3)cc2)cc1` (repeat unit) returned a glass transition temperature of 58.00 °C.

The compound `*c1ccc(C(=O)OCCCCCCCCOc2ccc(/C=C/C(=O)/C=C/c3ccc(OCCCCCCCCOC(=O)c4ccc(-c5nnc(*)o5)cc4)cc3)cc2)cc1` (repeat unit) returned a glass transition temperature of 59.00 °C.

`*c1ccc(C(=O)OCCCCCCOc2ccc(/C=C/C(=O)/C=C/c3ccc(OCCCCCCOC(=O)c4ccc(-c5nnc(*)o5)cc4)cc3)cc2)cc1` (repeat unit) showed a glass transition temperature of 62.00 °C.

Consider `*c1ccc(Oc2ccc(/C=C/c3ccc(Oc4ccc(-c5nnc(*)o5)cc4)cc3)cc2)cc1` (repeat unit), for which the glass transition temperature amounted to 215.00 °C.
